In patent publication US20210277020A1, “HETEROCYCLIC COMPOUNDS AS MONOACYLGLYCEROL LIPASE INHIBITORS” (Hoffmann-La Roche Inc., priority 2018, published 2021):

Molecular target: T1, MAGL (Homo sapiens, UniProt Q99685)
T1 sequence (Q99685 1-303): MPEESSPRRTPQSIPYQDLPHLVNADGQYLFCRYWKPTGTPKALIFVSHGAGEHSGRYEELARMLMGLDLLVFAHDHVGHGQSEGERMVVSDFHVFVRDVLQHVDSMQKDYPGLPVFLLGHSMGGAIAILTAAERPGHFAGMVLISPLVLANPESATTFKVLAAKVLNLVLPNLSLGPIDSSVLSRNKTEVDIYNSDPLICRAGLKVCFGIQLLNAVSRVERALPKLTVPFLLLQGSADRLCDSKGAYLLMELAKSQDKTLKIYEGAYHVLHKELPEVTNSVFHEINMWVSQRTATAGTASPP
Assay: 2-AG assay: MAGL inhibition followed by hydrolysis of 2-arachidonoylglycerol to arachidonic acid, mass spectrometry
Format: biochemical
Settings: measured in 2-AG assay (footnote [a]); substrate 2-arachidonoylglycerol 8 μM, 30 min at RT
Description: Alternatively, compounds were profiled for MAGL inhibitory activity by determining the enzymatic activity by following the hydrolysis of the natural substrate, 2-arachidonoylglycerol, resulting in arachidonic acid, which can be followed by mass spectrometry. This assay is hereinafter abbreviated “2-AG assay”.
Detection by mass spectrometry in the present 2-AG assay has the advantage over known optical assays that the natural enzyme substrate, 2-arachidonoylglycerol, can be used instead of structurally unrelated compounds needed for optical readouts (such as 4-NPA). It thereby delivers more relevant data for activity determination, reduces false positives and generally adds to data quality. In addition, this assay reduces the analysis time from about 10 minutes per sample with standard methods to under 10 seconds per sample. This allows for using the present 2-AG assay in a method for high throughput screening of compounds for their MAGL inhibitory activity.
The 2-AG assay was carried out in 384 well assay plates (PP, Greiner Cat #784201) in a total volume of 20 μL. Compound dilutions were made in 100% DMSO (VWR Chemicals 23500.297) in a polypropylene plate in 3-fold dilution steps to give a final concentration range in the assay from 12.5 μM to […]. 0.25 μL compound dilutions (100% DMSO) were added to 9 μL MAGL in assay buffer (50 mM TRIS (GIBCO, 15567-027), 1 mM EDTA (Fluka, 03690-100 mL), 0.01% (v/v) Tween. After shaking, the plate was incubated for 15 min at RT. To start the reaction, 10 μL 2-arachidonoylglycerol in assay buffer was added. The final concentrations in the assay was […] and 8 μM 2-arachidonoylglyerol. After shaking and 30 min incubation at RT, the reaction was quenched by the addition of 40 μL of acetonitrile containing 4 μM of d8-arachidonic acid. The amount of arachidonic acid was traced by an online SPE system (Agilent Rapidfire) coupled to a triple quadrupole mass spectrometer (Agilent 6460). A C18 SPE cartridge (G9205A) was used in an acetonitrile/water liquid setup. The mass spectrometer was operated in negative electrospray mode following the mass transitions 303.1→259.1 for arachidonic acid and 311.1→267.0 for d8-arachidonic acid. The activity of the compounds was calculated based on the ratio of intensities [arachidonic acid/d8-arachidonic acid].
In a preferred embodiment, the method for determining the MAGL inhibitory activity of a test compound according to the invention, comprises: • (i) providing a solution of a test compound; • (ii) adding the solution of step (i) to a solution of MAGL; • (iii) shaking the mixture obtained from step (ii); • (iv) incubating the mixture obtained from step (iii); • (v) adding a solution of 2-arachidonoylglycerol; • (vi) incubating the mixture obtained from step (v); • (vii) adding a solution of d8-arachidonic acid; and • (viii) determining the ratio of intensities arachidonic acid/d8-arachidonic acid using a mass spectrometer.

Row | Compound | IC50
1 | O=C1CO[C@H]2CCN(C(=O)N3CC(C[S+]([O-])c4ccc(C(F)(F)F)cc4Cl)C3)C[C@H]2N1 (mixture of isomers) [Example 153, (4aR,8aS)-6-[3-[[2-Chloro-4-(trifluoromethyl)phenyl]sulfinylmethyl]azetidine-1-carbonyl]-4,4a,5,7,8,8a-hexahydropyrido[4,3-b][1,4]oxazin-3-one] | 318 nM
2 | O=C1CO[C@H]2CCN(C(=O)N3CC(CNC(c4ccc(F)cc4)C(F)(F)F)C3)C[C@H]2N1 (stereo partly drawn) [Example 106, (4aR,8aS)-6-[3-[[[2,2,2-Trifluoro-1-(4-fluorophenyl)ethyl]amino]methyl]azetidine-1-carbonyl]-4,4a,5,7,8,8a-hexahydropyrido[4,3-b][1,4]oxazin-3-one] | 264 nM
3 | O=C1CO[C@H]2CCN(C(=O)N3CC(C#Cc4ccccc4C(F)F)C3)C[C@H]2N1 [Example 182, (4aR,8aS)-6-[3-[2-[2-(Difluoromethyl)phenyl]ethynyl]azetidine-1-carbonyl]-4,4a,5,7,8,8a-hexahydropyrido[4,3-b][1,4]oxazin-3-one] | 14 nM
4 | CN(C(=O)C1(c2cccc(C(F)(F)F)c2)CC1)C1CCN(C(=O)N2CC[C@@H]3OCC(=O)N[C@@H]3C2)CC1 [Example 82] | 349 nM
5 | CN(c1ccc(C(F)(F)F)cc1)C1CN(C(=O)N2CC[C@@H]3OCC(=O)N[C@@H]3C2)C1 (racemic) [Example 137, rac-(4aR,8aS)-6-[3-[N-methyl-4-(trifluoromethyl)anilino]azetidine-1-carbonyl]-4,4a,5,7,8,8a-hexahydropyrido[4,3-b][1,4]oxazin-3-one] | 1100 nM
6 | COc1cccc(C#CC2CN(C(=O)N3CC[C@@H]4OCC(=O)N[C@@H]4C3)C2)c1 [Example 181, (4aR,8aS)-6-[3-[2-(3-Methoxyphenyl)ethynyl]azetidine-1-carbonyl]-4,4a,5,7,8,8a-hexahydropyrido[4,3-b][1,4]oxazin-3-one] | 13 nM
7 | O=C1CO[C@H]2CCN(C(=O)N3CC(CS(=O)(=O)c4ccc(C(F)(F)F)cc4Cl)C3)C[C@H]2N1 [Example 152, (4aR,8aS)-6-[3-[[2-Chloro-4-(trifluoromethyl)phenyl]sulfonylmethyl]azetidine-1-carbonyl]-4,4a,5,7,8,8a-hexahydropyrido[4,3-b][1,4]oxazin-3-one] | 655 nM
8 | O=C1CO[C@H]2CCN(C(=O)N3CCC(C(NCc4cccc(C(F)(F)F)c4)C(F)(F)F)CC3)C[C@H]2N1 (stereo partly drawn) [Example 107, (4aR,8aS)-6-[4-[2,2,2-Trifluoro-1-[[3-(trifluoromethyl)phenyl]methylamino]ethyl]piperidine-1-carbonyl]-4,4a,5,7,8,8a-hexahydropyrido[4,3-b][1,4]oxazin-3-one] | 55 nM
9 | O=C1CO[C@H]2CCN(C(=O)N3CC(C#Cc4ccc(Cl)s4)C3)C[C@H]2N1 [Example 187, (4aR,8aS)-6-[3-[2-(5-Chlorothiophen-2-yl)ethynyl]azetidine-1-carbonyl]-4,4a,5,7,8,8a-hexahydropyrido[4,3-b][1,4]oxazin-3-one] | 18 nM
10 | COc1ccccc1C#CC1CCN(C(=O)N2CC[C@@H]3OCC(=O)N[C@@H]3C2)CC1 [Example 193, (4aR,8aS)-6-(4-((2-Methoxyphenyl)ethynyl)piperidine-1carbonyl)hexahydro-2H-pyrido[4,3-b][1,4]oxazin-3(4H)-one] | 86 nM
11 | COCc1ccccc1C#CC1CN(C(=O)N2CC[C@@H]3OCC(=O)N[C@@H]3C2)C1 [Example 191, (4aR,8aS)-6-[3-[2-[2-(Methoxymethyl)phenyl]ethynyl]azetidine-1-carbonyl]-4,4a,5,7,8,8a-hexahydropyrido[4,3-b][1,4]oxazin-3-one] | 81 nM
12 | O=C1CO[C@H]2CCN(C(=O)N3CCC(C#Cc4cccc(Cl)c4)CC3)C[C@H]2N1 [Example 129, (+)-(4aR,8aS)-6-[4-[2-(3-Chlorophenyl)ethynyl]piperidine-1-carbonyl]-4,4a,5,7,8,8a-hexahydropyrido[4,3-b][1,4]oxazin-3-one] | 103 nM
13 | O=C1CO[C@H]2CCN(C(=O)N3CC(S(=O)(=O)c4ccc(C(F)(F)F)cc4Cl)C3)C[C@H]2N1 [Example 144, (4aR,8aS)-6-[3-[2-Chloro-4-(trifluoromethyl)phenyl]sulfonylazetidine-1-carbonyl]-4,4a,5,7,8,8a-hexahydropyrido[4,3-b][1,4]oxazin-3-one] | 2640 nM
14 | O=C1CO[C@H]2CCN(C(=O)N3CC(CNC(c4ccccc4)C(F)(F)F)C3)C[C@H]2N1 (stereo partly drawn) [Example 71, (4aR,8aS)-6-(3-(((2,2,2-Trifluoro-1-phenylethyl)amino)methyl)azetidine-1-carbonyl)hexahydro-2H-pyrido[4,3-b][1,4]oxazin-3(4H)-one] | 105 nM

Stronger by IC50, values ahead:

Row | IC50 | Compound
15 | 9 nM | O=C1CO[C@H]2CCN(C(=O)N3CC(C#Cc4ccc(OC(F)(F)F)cc4)C3)C[C@H]2N1 [Example 166, (4aR,8aS)-6-[3-[2-[4-(Trifluoromethoxy)phenyl]ethynyl]azetidine-1-carbonyl]-4,4a,5,7,8,8a-hexahydropyrido[4,3-b][1,4]oxazin-3-one]
16 | 6 nM | O=C1CO[C@H]2CCN(C(=O)N3CC(C#Cc4ccc(C5CC5)cc4)C3)C[C@H]2N1 [Example 179, (4aR,8aS)-6-[3-[2-(4-Cyclopropylphenyl)ethynyl]azetidine-1-carbonyl]-4,4a,5,7,8,8a-hexahydropyrido[4,3-b][1,4]oxazin-3-one]
17 | 4 nM | CN(CC1CN(C(=O)N2CC[C@@H]3OCC(=O)N[C@@H]3C2)C1)C(c1ccc(C(F)(F)F)cc1)C(F)(F)F (stereo partly drawn) [Example 80, (4aR,8aS)-6-(3-((Methyl(2,2,2-trifluoro-1-(4-(trifluoromethyl)phenyl)ethyl)amino)methyl)azetidine-1-carbonyl)hexahydro-2H-pyrido[4,3-b][1,4]oxazin-3 (4H)-one]
18 | 4 nM | O=C1CO[C@H]2CCN(C(=O)N3CC(C#Cc4ccccc4OC(F)(F)F)C3)C[C@H]2N1 [Example 170, (4aR,8aS)-6-[3-[2-[2-(Trifluoromethoxy)phenyl]ethynyl]azetidine-1-carbonyl]-4,4a,5,7,8,8a-hexahydropyrido[4,3-b][1,4]oxazin-3-one]
19 | 3 nM | O=C1CO[C@H]2CCN(C(=O)N3CC(C#Cc4ccc(Cl)cc4C(F)(F)F)C3)C[C@H]2N1 [Example 164, (4aR,8aS)-6-[3-[2-[4-Chloro-2-(trifluoromethyl)phenyl]ethynyl]azetidine-1-carbonyl]-4,4a,5,7,8,8a-hexahydropyrido[4,3-b][1,4]oxazin-3-one]
20 | 1 nM | O=C1CO[C@H]2CCN(C(=O)N3CC(C#Cc4ccc(C(F)(F)F)c(Cl)c4)C3)C[C@H]2N1 [Example 160, (4aR,8aS)-6-(3-((3-Chloro-4-(trifluoromethyl)phenyl)ethynyl)azetidine-1-carbonyl)hexahydro-2H-pyrido[4,3-b][1,4]oxazin-3(4H)-one]
21 | 1 nM | O=C1CO[C@H]2CCN(C(=O)N3CC(C#Cc4ccc(C5CC5)cc4Cl)C3)C[C@H]2N1 [Example 162, (4aR,8aS)-6-(3-((2-Chloro-4-cyclopropylphenyl)ethynyl)azetidine-1-carbonyl)hexahydro-2H-pyrido[4,3-b][1,4]oxazin-3(4H)-one]
22 | 1 nM | O=C1CO[C@H]2CCN(C(=O)N3CC(C#Cc4c(F)cc(C(F)(F)F)cc4Cl)C3)C[C@H]2N1 [Example 189, (4aR,8aS)-6-[3-[2-[2-Chloro-6-fluoro-4-(trifluoromethyl)phenyl]ethynyl]azetidine-1-carbonyl]-4,4a,5,7,8,8a-hexahydropyrido[4,3-b][1,4]oxazin-3-one]
